In brackets after ≈: the same amount, converted by molar mass. Where two headings read alike, the source gives them in different places.
Legend:
[1] = system: Enterobacterales expressing class D oxacillinases (OXA-48/48-like); test: organism not typed; format: cell-based, E. coli, K. pneumoniae
[2] = system: E. cloacae ECL01 (TEM-72, ACT-1, P99AmpC); test: Broth microdilution MIC; format: cell-based; details: Enterobacter cloacae
[3] = system: Enterobacterales expressing class A carbapenemases (KPC); test: organism not typed; format: cell-based, K. pneumoniae, E. coli, E. cloacae, Klebsiella oxytoca
[4] = system: Enterobacterales expressing class A ESBLs; test: organism not typed; format: cell-based, E. coli, K. pneumoniae
[5] = system: isogenic strains of E. coli expressing Ambler class A, B, C, and D enzymes; test: microbe, parasite or virus in culture; format: cell-based, Escherichia coli; details: for Fold increase in MIC compared to vector control: inhibitor fixed at 4 μg/ml
[6] = 25 isolates, BLI fixed at 4 μg/ml, AMC 2:1

## C[C@@H](O)[C@H]1C(=O)N2C(C(=O)O)=C(SC3CN(C4=NCCS4)C3)[C@H](C)[C@H]12 [Tebipenem]
[1]; K. pneumoniae 722870 (OXA-48)
  MIC: 1 µg/mL (≈ 2.61 µM)
[1]; K. pneumoniae BAH (OXA-204)
  MIC: 0.5 µg/mL (≈ 1.3 µM)
[1]; K. pneumoniae DEL (OXA-232)
  MIC: ≥ 64 µg/mL
[1]; K. pneumoniae DOV (OXA-48)
  MIC: 0.5 µg/mL (≈ 1.3 µM)
[1]; K. pneumoniae KIRK (OXA-162)
  MIC: 1 µg/mL (≈ 2.61 µM)
[1]; K. pneumoniae SI-C17 (OXA-48)
  MIC: 16 µg/mL (≈ 41.7 µM)
[2]
  MIC: 0.25 µg/mL (≈ 0.652 µM)
[3]
  MIC50: ≥ 64 µg/mL
  MIC90: ≥ 64 µg/mL
[3]; [6]
  MIC50: ≥64 µg/mL
  MIC90: ≥64 µg/mL
[3]; E. cloacae 847426 (KPC)
  MIC: ≥ 64 µg/mL
[3]; E. cloacae 847429 (KPC)
  MIC: ≥ 64 µg/mL
[3]; E. cloacae OIMGH49 (p99 AmpC, ACT-2, KPC-2, TEM-1)
  MIC: 32 µg/mL (≈ 83.4 µM)
[3]; E. coli 786978 (KPC)
  MIC: ≥ 64 µg/mL
[3]; K. oxytoca 847537 (KPC)
  MIC: ≥ 64 µg/mL
[3]; K. oxytoca 847539 (KPC)
  MIC: 8 µg/mL (≈ 20.9 µM)
[3]; K. pneumoniae 155140 (AmpC, KPC-2, SHV-12, TEM-1)
  MIC: ≥ 64 µg/mL
[3]; K. pneumoniae 845661 (KPC)
  MIC: ≥ 64 µg/mL
[3]; K. pneumoniae 845662 (KPC)
  MIC: ≥ 64 µg/mL
[3]; K. pneumoniae 845665 (KPC)
  MIC: ≥ 64 µg/mL
[3]; K. pneumoniae 845667 (KPC)
  MIC: ≥ 64 µg/mL
[3]; K. pneumoniae 845670 (KPC)
  MIC: 32 µg/mL (≈ 83.4 µM)
[3]; K. pneumoniae 845904 (KPC)
  MIC: ≥ 64 µg/mL
[3]; K. pneumoniae 847204 (KPC)
  MIC: ≥ 64 µg/mL
[3]; K. pneumoniae 847375 (KPC)
  MIC: ≥ 64 µg/mL
[3]; K. pneumoniae 847378 (KPC)
  MIC: ≥ 64 µg/mL
[3]; K. pneumoniae 847379 (KPC)
  MIC: 16 µg/mL (≈ 41.7 µM)
[3]; K. pneumoniae 847383 (KPC)
  MIC: ≥ 64 µg/mL
[3]; K. pneumoniae 847384 (KPC)
  MIC: ≥ 64 µg/mL
[3]; K. pneumoniae 847387 (KPC)
  MIC: ≥ 64 µg/mL
[3]; K. pneumoniae 847747 (KPC)
  MIC: ≥ 64 µg/mL
[3]; K. pneumoniae 848832 (KPC)
  MIC: ≥ 64 µg/mL
[3]; K. pneumoniae 848844 (KPC)
  MIC: ≥ 64 µg/mL
[3]; K. pneumoniae 897067 (KPC)
  MIC: 32 µg/mL (≈ 83.4 µM)
[3]; K. pneumoniae UMM (KPC-2, SHV-5, TEM-1)
  MIC: 32 µg/mL (≈ 83.4 µM)
[4]
  MIC50: 0.03 µg/mL (≈ 0.0782 µM)
  MIC90: 0.06 µg/mL (≈ 0.156 µM)
[4]; [6]
  MIC range: ≤0.016 to 0.12 µg/mL
[5]; E. coli expressing ACT-17 (class C)
  Fold increase in MIC compared to vector control: 4
[5]; E. coli expressing CMY-2 (class C)
  Fold increase in MIC compared to vector control: 4
[5]; E. coli expressing CMY-42 (class C)
  Fold increase in MIC compared to vector control: 16
[5]; E. coli expressing CTX-M-15 (class A)
  Fold increase in MIC compared to vector control: 4
[5]; E. coli expressing GES-5 (class A)
  Fold increase in MIC compared to vector control: 512
[5]; E. coli expressing KPC-3 D179Y (class A)
  Fold increase in MIC compared to vector control: 8
[5]; E. coli expressing NDM-1 (class B)
  Fold increase in MIC compared to vector control: 2,048
[5]; E. coli expressing OXA-23 (class D)
  Fold increase in MIC compared to vector control: 128
[5]; E. coli expressing OXA-48 (class D)
  Fold increase in MIC compared to vector control: 256
[5]; E. coli expressing OXA-163 (class D)
  Fold increase in MIC compared to vector control: 32
[5]; E. coli expressing OXA-181 (class D)
  Fold increase in MIC compared to vector control: 256
[5]; E. coli expressing P99/AmpC (class C)
  Fold increase in MIC compared to vector control: 8
[5]; E. coli expressing PER-1 (class A)
  Fold increase in MIC compared to vector control: 4
[5]; E. coli expressing SHV-5 (class A)
  Fold increase in MIC compared to vector control: 4
[5]; E. coli expressing SHV-12 (class A)
  Fold increase in MIC compared to vector control: 4
[5]; E. coli expressing TEM-10 (class A), modal MIC, 4 replicates
  Fold increase in MIC compared to vector control: 4
[5]; E. coli expressing VEB-9 (class A)
  Fold increase in MIC compared to vector control: 2
[5]; Escherichia coli, read-out: Vector control MIC
  MIC: 0.016 µg/mL (≈ 0.0417 µM)

— article PMC8284453 (Antimicrobial Agents and Chemotherapy, 2021)
